Measurements as given in article PMC10252891 (Cells, 2023).
Converted amounts (≈) assume the structure as drawn. “And” between values parts separate entries of the source, which are not always exact repeats. Equal entries are not always repeated.

What was measured:
[1] = tested on: PTZ-induced epileptiform brain discharges in zebrafish larvae; set-up: method as in PMID 34768849; conditions: pimpinellin; cited from earlier work
[2] = cited from earlier work
[3] = tested on: PTZ-induced seizure-like movements in zebrafish larvae; test: PTZ-induced seizure-like locomotor tracking in zebrafish larvae; assay type: in vivo, Danio rerio; conditions: for decrease of actinteg values of PTZ-treated larvae: 1 h pre-immersion; for decrease of actinteg values of PTZ-treated larvae / decrease of locomotor activity of PTZ-treated larvae: 20 mM PTZ, vs vehicle-PTZ group
Protocol: For immersion 6 days post-fertilization (dpf) and for all measurements, 7-dpf larvae were used. The zebrafish experiments described here were approved by the Local Ethics Committee in Lublin (license no: 109/2018).
All compounds were dissolved in dimethyl sulfoxide (DMSO) and diluted in an embryo medium to achieve a final DMSO concentration of 1% w/v. Embryo medium prepared with DMSO to a final concentration of 1% w/v served as vehicle control (VHC). PTZ (Sigma-Aldrich, Poznań, Poland) was dissolved at a concentration of 40 mM in the embryo medium. The control anticonvulsant agent used in this study was VPN (Sigma-Aldrich, Poznań, Poland).
(§1) 100 µL of embryo medium or 100 µL of a 40 mM PTZ solution was added to obtain a final concentration of 20 mM of PTZ in each well [30]. Larvae were habituated for 5 min in a dark chamber of an automated tracking device (ZebraBox system; Viewpoint, Lyon, France). Then, the locomotor activity without proconvulsant treatment was measured in the dark. The total locomotor activity was quantified using ZebraLab software (Viewpoint, Lyon, France) and was expressed in “actinteg”’ units, which is the sum of all pixel changes detected during the period defined for the experiment. After the evaluation of preincubated larvae movements, PTZ solution was added, and the locomotor behavior was measured for 30 min for each condition. All tracking experiments were performed at least in triplicate.

zebrafish larvae = test: Locomotor activity of zebrafish larvae without proconvulsant treatment; assay type: in vivo, Danio rerio
Protocol: as §1

[4] = LC-MS/MS quantification of whole-body uptake in immersed zebrafish larvae
Protocol: After immersion larvae were plated in 1% BSA for 15 s and washed thoroughly by shaking to remove all compounds from the larvae surface. […] For quantification, six larvae were pooled before homogenization. Three experiments were carried out in independent days.
These were homogenized with the Ultrasonic Processor UP50H (Hielscher): 1 cycle—60% amplitude. The run consisted of two cycles of 15 s with a rest of 50 s in ice for each sample. […] To 100 µL of homogenate 200 µL of the internal standard (IS) Rolipram (Sigma Aldrich, Buchs, Switzerland) (20 ng/mL) for the positive MS experiment, and VPA d-6 (Sigma Aldrich, Buchs, Switzerland) (50 µg/mL) for the negative MS experiment were added. Samples were vortexed for 10 s and then centrifuged at 12,000 rpm for 10 min at 4 °C. After centrifugation, 150 µL of supernatant was transferred into LC-MS vials already containing 120 µL of MilliQ water. Then, 10 µL was injected into the LC-MS/MS system.
A hybrid triple quadrupole 4000 QTRAP mass spectrometer (AB Sciex Concord, ON, Canada) was used with a Shimadzu UFLC (Shimadzu Corporation, Kyoto, Japan) with a cooled auto-sampler. The sample temperature was maintained at 4 °C in the auto-sampler prior to analysis. The LC column was Synergi 4 µm Fusion-RP 80Å C18 50 × 2 mm, Phenomenex, maintained at 45 °C. The system was operated first in positive and after in negative mode with the same elution mobile phases and gradient method. Mobile phases were as follows: water with 0.1% formic acid (solvent A) and methanol with 0.1% formic acid (solvent B). […] The flow rate was 0.80 mL/min. Peaks were integrated, and the analyst software version 1.6.2 (AB Sciex Concord, ON, Canada) was used for quantification. […] Negative mode: Valproic acid m/z 143→143, (IS: Valproic Acid-d6 149→149).

[5] = mammals; cited from earlier work
[6] = treated humans; cited from earlier work
LAT1 = molecular target: T1, LAT1 (Homo sapiens, UniProt Q01650); test: [3H]-L-leucine uptake inhibition in MDST8-LAT1 cells; assay type: cell-based; conditions: LAT1 transfected cells
T1 construct: expressed in transfected cells; host or cells: MDST8-LAT1 cells
Protocol: [3H]-L-Leucine uptake assay
[3H]-L-Leucine uptake assay was performed as previously described [Yan et al., 2021]. Cells were seeded in 96-well plates with opaque bottom (Corning, 353296) at 40-60% confluency, allowing them to attach for 48 hours in a fully supplemented media. Cells were preincubated with different concentrations of […]
Solution (HBSS) containing 125 mM choline-Cl, 25 mM HEPES, 4.8 mM KCl, 1.2 mM MgSO4, 1.2 mM KH2PO4, 1.3 mM CaCl2 and 5.6 mM D-glucose (pH 7.4) and further incubated with the same solution for 7 minutes at 37 °C. [3H]-l-Leucine uptake was assessed in the same solution containing 10 nM “hot” [3H]-L-Leucine (60 Ci/mmol) (Anawa, 0140A-1) + 30 μM “cold” L-leucine. In case of 5 μM JPH203, the same procedure was followed without PTX preincubation. After 3 minutes, the solution was removed, and the cells were washed with ice-cold Na+-free HBSS to terminate the uptake. Cells were lysed with scintillation solvent MicroScint-20 (Perkin-Elmer Life Sciences, 6013621) and the radioactivity was measured with a scintillation counter (TopCount NXT, Perkin-Elmer Life Sciences).
*Yan R, Li Y, Müller J, Zhang Y, Singer S, Xia L, Zhong X, Gertsch J, Altmann KH, Zhou Q. Mechanism of substrate transport and inhibition of the human LAT1-4F2hc amino acid transporter. Cell Discov.

[7] = tested on: PTZ-induced epileptiform brain discharges in zebrafish larvae; test: Local field potential (LFP) recordings, power spectral density (PSD) analysis, PTZ-induced seizure model; assay type: in vivo, Danio rerio; conditions: PTX 20 µM, 18 h immersion, mean PSD over the 1–50 Hz region, 20 mM PTZ
Protocol: Non-invasive local field potential (LFP) was recorded from the optic tectum of zebrafish as described before. Before the recording, the treated larvae were immersed for 15 min in 100 µL of VHC or 20 mM PTZ. After immersion, a larva was immobilized in 2% low melting agarose (Invitogen, Waltham, MA, USA) and the signal electrode (Hilgenberg, Germany) was placed on the surface of the head above the optic tectum. The differential signal between the recording electrode and the reference electrode was amplified 10,000 times by EXT-02F/2 extracellular amplifier (NPI Electronic, Tamm, Germany), band pass filtered at 3–300 Hz and digitized at 2 kHz via a PCI-6251 interface (National Instruments, Austin, Texas, USA) with WinEDR (John Dempster, University of Strathclyde, Glasgow, Scotland). A HumBug noise eliminator (Quest Scientific, Hofheim, Germany) was used to remove 50–60 Hz noise. The recordings and the quantification of the signal from epileptiform brain discharges by Welch’s power spectral density (PSD) analysis were performed as described before.

[8] = tested on: zebrafish larvae whole-body metabolites; test: Amino acid and neurotransmitter quantification (targeted metabolomics) in zebrafish larvae whole-body; assay type: in vivo, Danio rerio; conditions: PTX 20 μM, 18 h immersion
Protocol: For quantification, six larvae were pooled before homogenization. Three experiments were carried out in independent days.
The samples were prepared as described before. To 80 µL of the homogenate 320 µL of MeOH was added to precipitate proteins at a volume dilution […]. After centrifugation at max speed (20,000 rpm) at 4 °C for 10 min, 50 µL were diluted with 200 µL of 1:1 MeOH:1 mM EDTA in Water (Dil 1:4). Samples were centrifuged at max speed at 4 °C for 10 min, and 50 µL were taken into the LC-MS insert vials, 5 µL of the internal standard mix (ethanolamine_d4, dopamine_d4, methionine_d3, serine_d3, lysine_d4 glycine_d5, and acetylcholine_d4) was added to all vials.
The LC column used was Imtakt Intrada amino acid WAA34, 100 × 3 mm; 3 µm, maintained at 35 °C. The system was operated in positive mode. Mobile phases were: 100 mM Ammonium formate in water (mobile phase A) and 95:5:0.3 acetonitrile:water:formic acid (mobile phase B).

T1 sequence (Q01650 whole entry): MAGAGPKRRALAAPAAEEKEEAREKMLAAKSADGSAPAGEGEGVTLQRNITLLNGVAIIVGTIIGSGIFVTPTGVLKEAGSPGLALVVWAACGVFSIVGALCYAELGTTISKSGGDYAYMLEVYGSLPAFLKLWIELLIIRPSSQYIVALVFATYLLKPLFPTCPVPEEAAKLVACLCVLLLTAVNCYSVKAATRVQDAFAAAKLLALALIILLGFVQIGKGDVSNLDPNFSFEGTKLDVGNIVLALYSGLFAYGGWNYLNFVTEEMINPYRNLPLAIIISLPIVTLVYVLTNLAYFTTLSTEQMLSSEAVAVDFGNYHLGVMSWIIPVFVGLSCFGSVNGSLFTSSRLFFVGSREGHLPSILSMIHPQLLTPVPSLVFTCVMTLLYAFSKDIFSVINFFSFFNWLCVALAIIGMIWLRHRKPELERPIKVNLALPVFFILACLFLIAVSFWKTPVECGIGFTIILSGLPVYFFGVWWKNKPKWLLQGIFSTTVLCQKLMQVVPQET
T1 sequence (P08195 102-630 partner): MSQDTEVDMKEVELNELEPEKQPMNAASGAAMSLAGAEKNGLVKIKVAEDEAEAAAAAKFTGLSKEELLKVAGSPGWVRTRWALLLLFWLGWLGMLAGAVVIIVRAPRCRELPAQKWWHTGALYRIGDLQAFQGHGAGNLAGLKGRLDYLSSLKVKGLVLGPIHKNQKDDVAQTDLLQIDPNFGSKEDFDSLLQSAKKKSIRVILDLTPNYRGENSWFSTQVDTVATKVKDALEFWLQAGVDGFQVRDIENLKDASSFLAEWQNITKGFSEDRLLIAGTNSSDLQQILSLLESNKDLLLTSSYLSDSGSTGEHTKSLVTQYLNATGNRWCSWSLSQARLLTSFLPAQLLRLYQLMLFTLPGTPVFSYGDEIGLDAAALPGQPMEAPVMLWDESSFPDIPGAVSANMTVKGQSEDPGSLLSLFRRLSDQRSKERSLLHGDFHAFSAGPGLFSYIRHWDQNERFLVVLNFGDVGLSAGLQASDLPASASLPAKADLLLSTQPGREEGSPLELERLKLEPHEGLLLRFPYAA

COc1c(OC)c2occc2c2oc(=O)ccc12 [Pimpinellin, pimpinellin]
decrease of normalized PSD [1]: 81%

CCCC(CCC)C(=O)O [VPA, valproic acid]
solubility in aqueous solutions [2]: 1200 µg/mL (≈ 8.32 mM)

CCCC(CCC)C(=O)O [VPN, sodium valproate]
efficacy against PTZ-induced seizure-like movements ([3]; VPN 5 mM, 1 h): ~ 80% | activity of PTZ-treated larvae vs vehicle-PTZ group ([3]; VPN 5 mM, 18 h immersion, p < 0.001): decreased the activity | locomotor activity without PTZ vs vehicle (zebrafish larvae; VPN 5 mM, 18 h): significant inhibition of the locomotor activity | % Absorbed ([4]; VPN/VPA 100 µM, 1 h immersion): ~ 6% | % Absorbed ([4]; VPN/VPA 100 µM, 1 h immersion, listed as VPN/VPA): 6.5% | % Absorbed ([4]; VPN/VPA 500 µM, 1 h immersion): 2.3% | % Absorbed ([4]; VPN/VPA 1 mM, 1 h immersion): 3.3% | % Absorbed ([4]; VPN/VPA 5 mM, 5 min immersion): 0.77% | % Absorbed ([4]; VPN/VPA 5 mM, 5 min immersion, listed as VPN/VPA): 0.8% | % Absorbed ([4]; VPN/VPA 5 mM, 30 min immersion): 1.44% | % Absorbed ([4]; VPN/VPA 5 mM, 30 min immersion, listed as VPN/VPA): 1.4% | % Absorbed ([4]; VPN/VPA 5 mM, 1 h immersion): 2.52% | % Absorbed ([4]; VPN/VPA 5 mM, 1 h immersion, listed as VPN/VPA): 2.5% | % Absorbed ([4]; VPN/VPA 5 mM, 18 h immersion (metabolism)): 0.76% (metabolism) | % Absorbed ([4]; VPN/VPA 5 mM, without larvae): 100% | Measured concentration ([4]; VPN/VPA 5 mM, without larvae): 734,333 ± 5859 ng/g and 5092 ± 40.6 µM | concentration at 1 h ([4]; zebrafish (Danio rerio) larvae, whole-body larvae homogenate, other: immersion in compound-containing medium, 100 µM, Measured concentration in larvae whole-body, VPN/VPA 100 µM, 1 h immersion): 941 ng/g and 6.5 µM | concentration at 1 h ([4]; zebrafish (Danio rerio) larvae, whole-body larvae homogenate, other: immersion in compound-containing medium, 500 µM, Measured concentration in larvae whole-body, VPN/VPA 500 µM, 1 h immersion): 1680 ng/g and 11.6 µM | concentration at 1 h ([4]; zebrafish (Danio rerio) larvae, whole-body larvae homogenate, other: immersion in compound-containing medium, 1 mM, Measured concentration in larvae whole-body, VPN/VPA 1 mM, 1 h immersion): 4740 ng/g and 32.9 µM | concentration at 5 min ([4]; zebrafish (Danio rerio) larvae, whole-body larvae homogenate, other: immersion in compound-containing medium, 5 mM, Measured concentration in larvae whole-body, VPN/VPA 5 mM, 5 min immersion): 5600 ng/g and 38.8 µM | concentration at 30 min ([4]; zebrafish (Danio rerio) larvae, whole-body larvae homogenate, other: immersion in compound-containing medium, 5 mM, Measured concentration in larvae whole-body, VPN/VPA 5 mM, 30 min immersion): 10400 ng/g and 71.9 µM | concentration at 1 h ([4]; zebrafish (Danio rerio) larvae, whole-body larvae homogenate, other: immersion in compound-containing medium, 5 mM, Measured concentration in larvae whole-body, VPN/VPA 5 mM, 1 h immersion): 18200 ng/g | concentration at 18 h ([4]; zebrafish (Danio rerio) larvae, whole-body larvae homogenate, other: immersion in compound-containing medium, 5 mM, Measured concentration in larvae whole-body, VPN/VPA 5 mM, 18 h immersion): 5470 ng/g and 38 µM | concentration at 1 h ([4]; zebrafish (Danio rerio) larvae, whole-body larvae homogenate, other: immersion in compound-containing medium, 5 mM, concentration in larvae whole-body, VPN 5 mM, 1 h): 18200 ± 400 ng/g | concentration at 1 h ([4]; zebrafish (Danio rerio) larvae, whole-body larvae homogenate, other: immersion in compound-containing medium, 10 mM, Measured concentration in larvae whole-body, VPN/VPA 10 mM, 1 h immersion): 33900 ng/g and 235 µM | oral bioavailability [5]: ~ 90% | therapeutic plasma concentration, total [6]: 300 to 700 µM | therapeutic plasma concentration, unbound [6]: 30 to 100 µM

pteryxin [PTX]
effect on the LAT1-mediated leucine transport (LAT1): did not show any effect | decrease in the PSD values [7]: 99.8% | decrease of actinteg values of PTZ-treated larvae ([3]; PTX 10 µM): 37.6% | decrease of locomotor activity of PTZ-treated larvae ([3]; PTX 10 µM, 18 h immersion): 61.4% | decrease of actinteg values of PTZ-treated larvae ([3]; PTX 15 µM): 57.6% | decrease of locomotor activity of PTZ-treated larvae ([3]; PTX 15 µM, 18 h immersion): 73.3% | decrease of actinteg values of PTZ-treated larvae ([3]; PTX 20 µM): ~ 70% and 70.6% | decrease of locomotor activity of PTZ-treated larvae ([3]; PTX 20 µM, 18 h immersion): 78.2% | average movements without PTZ vs vehicle (zebrafish larvae; PTX 5 µM, 1 h): increased the average movements | locomotor activity without PTZ vs vehicle (zebrafish larvae; PTX 20 µM, 1 h): decreased locomotor activity | locomotor activity without PTZ vs vehicle (zebrafish larvae; PTX 20 µM, 18 h): significant inhibition of the locomotor activity | decrease of some AA levels vs control [8]: up to 60%
